The text below walks through data of patent US20010014671A1, “Treatment of osteoarthritis by administering poly-N-acetyl-D-glucosamine” (Lescarden, Inc., priority 1996, published 2001).

A short description of data set [1]: Serum NAG and glucosamine levels after oral ingestion of NAG or poly-NAG in healthy subjects (crossover, HPLC analysis). It counts as in vivo, human. The text has this:
Ten normal, healthy subjects (five men and five women ages 36-50) were randomly divided into two groups (designated as A and B). On Day-1 a fasting blood sample was collected from each patient. Following this, group A orally ingested 1.0 gram of NAG and group B ingested 1.0 gram of poly-NAG. On Day-2 the subjects again ingested one gram of the appropriate test substance before breakfast. On the third day a fasting blood sample was taken at time T=0. Subsequently, they consumed the final 1.0 gram of the appropriate test substance, and nonfasting blood samples were taken at 1, 2, 4, and 8 hours. Fasting blood samples were taken at 24 and 48 hours thereafter. […] On Day-8, after a fasting blood sampling, the groups were switched (i.e., group A took poly-NAG while group B consumed NAG) and the same procedure as shown above was repeated.
The data were analyzed using analytical HPLC procedure based on published methods for amino sugar analysis. The chromatographic system consisted of a Hewlett-Packard 1090M Liquid Chromatograph/Work Station equipped with a Diode Array Detector. Separation was by isocratic elution at 40° C. from a 300×7.8 mm Rezex Organic Acid Column (Phenomenex; N>75000 P/m) with 0.005N H2SO4 at a flow rate of 0.6 ml/min. The analytical conditions had been developed for resolution of the aminosugar/acetylated aminosugar components of physiological fluids, and the diode array detector was optimized at 193 nm for maximum sensitivity and minimum interference. The system was calibrated with standards before, during and after the study to assure there were no significant changes due to wear and tear or aging of the system. The chromatographic data were transferred to a spreadsheet and statistically tested with ANOVA (Single Factor, Two-Factor without Replication, Two-Factor with Replication) and paired T-tests.

The conditions of data set [2]: human trials, cited from earlier work.
The conditions of data set [3]: cited from earlier work.

Turning to `CC(=O)N[C@H]1C(O)O[C@H](CO)[C@@H](O)[C@@H]1O` (stereo partly drawn) [NAG, N-acetyl-D-glucosamine], the “subjects showing decreased serum NAG levels” value in data set [1] (24 hours following cessation of ingestion, both groups together (4/20)) is 20%. For the same molecule, in data set [1] (Pre (pretest fasting sample before ingestion), 1.0 g per day oral), the “concentration of NAG in serum, Avg” value is 10.3 nanomoles per ml of serum. Further, the “subjects with increased serum NAG concentrations” value in data set [1] (T=0 compared with pretest values, fraction of 20 subject-periods) is given as 6/20. Besides, the “subjects showing an increase in serum NAG” value in data set [1] (T=1 hour compared with pretest value, fraction of 20 subject-periods) is 8/20. In data set [1] (both sexes, human, serum, T0, third day fasting, before final 1.0 g oral dose), this molecule returned a concentration at 0 h of 15.4 µM. This molecule also yielded a concentration at 1 h in data set [1] (both sexes, human, serum, T1, 1 hour after final 1.0 g oral dose, nonfasting) of 18.2 µM. In data set [1] (both sexes, human, serum, T2, 2 hours after final 1.0 g oral dose, nonfasting), this molecule displayed a concentration at 2 h of 21 µM. In data set [1] (both sexes, human, serum, T4, 4 hours after final 1.0 g oral dose, nonfasting), this molecule came in with a concentration at 4 h of 22.9 µM. The concentration at 8 h in data set [1] (both sexes, human, serum, T8, 8 hours after final 1.0 g oral dose, nonfasting) came to 14.6 µM. This molecule had a concentration at 24 h in data set [1] (both sexes, human, serum, T24, 24 hours after final 1.0 g oral dose, fasting) of 13.6 µM. In addition, the concentration at 48 h in data set [1] (both sexes, human, serum, T48, 48 hours after final 1.0 g oral dose, fasting) amounted to 12.7 µM.

In the case of `N[C@H]1C(O)O[C@H](CO)[C@@H](O)[C@@H]1O.O=S(=O)(O)O` (stereo partly shown) [glucosamine sulfate], the “effect on symptoms of osteoarthritis” value in data set [2] (pain, joint tenderness, swelling and mobility) is “significant improvement in the symptoms of pain, joint tenderness, swelling and mobility”. Besides, the “adverse side effects or undesirable drug interactions” value in data set [2] is reported as “not to have any adverse side effects or undesirable interactions with other drugs”.

On to `N[C@H]1C(O)O[C@H](CO)[C@@H](O)[C@@H]1O` (stereo partly shown) [glucosamine], for which the “excreted in the feces” value in data set [3] (dog, in vivo) is reported as 1.7%. The “time of peak protein incorporation of glucosamine” value in data set [3] (incorporation into alpha and beta globulins) is 8 h. Also, the excreted in urine in data set [3] (mainly as glucosamine) is listed as 34%.
